Measurements taken from US20160214926A1, “DIPHENYLOXYALKYLAMINE DERIVATIVES AND ARYLOXYALKYLAMINE DERIVATIVES, PHARMACEUTICAL COMPOSITION, USE OF SAID PHARMACEUTICAL COMPOSITION FOR TREATING, PREVENTING OR INHIBITING CHRONIC PULMONARY INFLAMMATORY DISEASES AND METHOD FOR TREATING OR PREVENTING SUCH DISEASES” (FUNDACAO OSWALDO CRUZ, priority 2013, published 2016).

How the values were obtained:
A/J mice [1] = experiment: LPS-induced lung inflammation and airway hyperreactivity; format: in vivo
Method: Male A/J mice (18-20 g), coming from the Laboratory Animal Breeding Center of Oswaldo Cruz Foundation, were used in the experiments. The mice were anesthetized with halothane aerosol ([…], SP, Brazil) to receive intranasal administration of LPS (25 μg/25 μl 0.9% NaCl, instillation) or 0.9% NaCl (25 μl) (negative control). […] Obtaining of bronchoalveolar lavage, as well as the total and differential leukocyte counts carried out in this effluent, were made as previously described (Kummerle et al., 2012). Thus, after 18 hrs of LPS instillation, the mice were sacrificed by terminal anesthesia with thiopental (500 mg/kg). Then, they had the trachea dissected and cannulated. Bronchoalveolar lavage (BAL) was performed by 3 consecutive lavages of 800 μl of PBS containing EDTA (10 mM). The lavages were then subjected to centrifugation (1500 rpm-10 minutes) and the cell “pellet” resuspended in the volume of 0.5 ml of PBS/EDTA solution 10 mM. The total leukocyte count from the lavage was performed in a Neubauer chamber by light microscopy (100× magnification), diluting an aliquot of the cell suspension from the lavage in TPrk liquid (1:40). The differential counting was performed on cytocentrifuged, which were stained with May-Grunwald-Giemsa and assessed using oil immersion objective (1000× magnification) (Kummerle et al., 2012). The airway hyperreactivity was also assessed 18 hours after LPS, by exposing the animals to increasing concentrations of aerosolized methacholine (3-27 mg/ml) in FinePoint R/C Buxco® system (Buxco Electronics, Sharon, Conn., USA). The mice were anesthetized with Nembutal (60 mg/kg, i.p.) for the tracheostomy procedure and connection of the animal to mechanical ventilation and pneumotachograph of the FinePoint platform. The neuromuscular activity was blocked with pancuronium bromide (1 mg/kg, i.v.) to enable the pulmonary resistance records (cm H20/mL/s) and elastance (cm H20/mL) in each respiratory cycle, as previously reported (Olsen et al., 2011).

A/J mice [2] = experiment: Methacholine-induced bronchospasm (Penh), whole-body plethysmography; format: in vivo; details: for blocking of methacholine-induced increase of Penh (cholinergic bronchospasm): 30 and 100 mg/kg orally
Method: A/J mice of both sexes were used, weighing between 18 and 20 g, coming from the Laboratory Animal Breeding Center of Oswaldo Cruz Foundation. Using barometric whole-body plethysmography (Buxco Research System, Wilmington, N.C.), bronchospasm responses caused by subsequent inhalations of methacholine (12, 25 and 50 mg/ml for 2.5 minutes, 5-minute intervals) were measured in standard A/J mice, awake, not immobilized, as previously reported (Coelho et al., 2008; Hamelmann et al., 1997). Penh measures in response to methacholine challenge were performed 1 hour and 3 hours after treatment with JME-207 and JME-209 (30 and 100 mg/kg) administered orally (gavage).

[3] = tested on: mast cells of the RBL-2H3 line; experiment: Antigen-induced degranulation of sensitized mast cells (beta-hexosaminidase release); format: cell-based; details: Rattus norvegicus; for IC50: RBL-2H3, 1 h, RBL-2H3, DNP-BSA 10 ng/ml, 60 minutes treatment, read-out: IC50 blocking of anaphylactic mast cell degranulation; for Emax: RBL-2H3, DNP-BSA, read-out: EMAX blocking of anaphylactic mast cell degranulation
Method: For this study, mast cells of the RBL-2H3 line were used, as previously reported (Beaven et al., 1987). […] The cells were then dissociated from the plate using trypsin, centrifuged at 1000 rpm for 5 minutes and distributed in 48-well plates at a density of 125,000 cells per well. The cells were sensitized with monoclonal DNP-specific […] (1 μg/mL) diluted in the same medium used for the cultivation and maintained in the oven for 20 hours. After this period, the cells were washed with Tyrode-gelatin and subjected to treatment with increasing concentrations of […]-209 or mexiletine for 60 minutes. Then, incubation was performed with DNP-BSA (10 ng/ml) for a further period of 60 minutes. After this period, 10 μL of supernatant were collected from each well and added to a 96-well plate. The cells were lysed with 200 μL of 0.1% Triton X-100 and 10 μL of the lysate of each plate were added to the 96-well plate. Then, 40 μL of substrate for the β-hexosaminidase enzyme were added to the samples. After 40 minutes of reaction, reaction stopping solution (0.2 M glycine) was added, generating a colorimetric response, which was measured by spectrophotometer (λ=405 nm).

A/J mice [4] = experiment: Acute airway inflammation induced by cigarette smoke; format: in vivo; details: JME-209 30 and 100 mg/kg
Method: Male A/J mice (18-20 g), coming from the Laboratory Animal Breeding Center of Oswaldo Cruz Foundation, were used in the experiments. The animals were placed in a chamber and subjected to an atmosphere enriched with 100 ml of smoke from 4 filter cigarettes (trade mark) for 1 minute on four consecutive days. Control animals were exposed to the condition in which cigarette smoke was replaced by equal volume of ambient air (Castro et al., 2009).
[…] The compounds were dissolved in 0.9% NaCl just prior to administration.
Obtaining of bronchoalveolar lavage, as well as the total and differential leukocyte counts carried out in this effluent, were made as previously described (Olsen et al., 2011). Thus, after 24 hrs of the last exposure to cigarette smoke, the mice were sacrificed by terminal anesthesia with thiopental (500 mg/kg). Then, they had the trachea dissected and cannulated BAL was performed by 3 consecutive lavages of 800 μl of PBS containing EDTA (10 mM). The lavages were then subjected to centrifugation (1500 rpm-10 minutes) and the cell “pellet” resuspended in the volume of 0.5 ml of PBS/EDTA solution 10 mM. The total leukocyte count from the lavage was performed in a Neubauer chamber by light microscopy (100× magnification), diluting an aliquot of the cell suspension from the lavage in TPrk liquid (1:40). The differential counting was performed on cytocentrifuged, which were stained with May-Grunwald-Giemsa and assessed using oil immersion objective (1000× magnification).

A/J mice [5] = experiment: Ovalbumin asthma model: airway hyperreactivity, leukocyte infiltration, cytokines (nebulization); format: in vivo; details: for airway hyperreactivity (lung resistance and elastance after methacholine): nebulization 2% for 30 minutes, OVA sensitized and challenged
Method: Male A/J mice (18-20 g), coming from the Laboratory Animal Breeding Center of Oswaldo Cruz Foundation, were used in the experiments. The animals were previously sensitized with a mixture of ovalbumin (OVA) (50 μg) (Grade V; Sigma, St. Louis, Mo., USA) and aluminum hydroxide (5 mg) administered subcutaneously on day 0 with boost on day 14 (equal suspension administered intraperitoneally). Nasal instillations of OVA (25 μg/25 μl in sterile 0.9% NaCl) were administered on days 14, 21, 28 and 35, with the hyperresponsiveness analysis performed 24 hours after the last challenge. […] That is, the treatments took place after the installation of asthma framework, reflecting a therapeutic action of the respective compounds analyzed.
The effect of the treatments on bronchial hyperreactivity was investigated by measuring the resistance changes and pulmonary elastance, using invasive barometric plethysmography whole-body system (Buxco, USA), as previously described (Olsen et al., 2012).

rat tracheal rings = experiment: Inhibition of carbachol-induced contraction of rat tracheal rings (pretreatment); details: for IC50 / Emax: carbachol 10 μM, pretreated 10 minutes; for Emax: mean ± SEM, read-out: EMAX maximum effect of inhibition of carbachol-induced contraction; for inhibition at 100 µM: compound 100 μM, pre-treatment 10 minutes, read-out: inhibition of the muscarinic contraction
Source text: In this study, Wistar rats of both sexes were used, weighing between 200 and 250 g, coming from the Laboratory Animal Breeding Center of Fundacdo Oswaldo Cruz. As previously described (Coelho et al., 2008), the animals were sacrificed by exposure to air atmosphere enriched with CO2, Then, the anterior cervical region was opened so that the trachea could be located and removed. It was then transferred to a Petri dish containing Krebs solution with the following composition (mM): NaCl (118), KCl (4.8), CaCl2 (2.5), MgSO4 (1.2), KH2PO4 (1.2), NaHCO3 (24), and glucose (11). The total segment was divided into fragments of about 3 to 4 rings, which were kept in another Petri dish containing Krebs solution. Each fragment was mounted vertically on a 10 ml cuvette with Krebs solution maintained at 37° C. and aerated with carbogen mixture (95% O2 and 5% CO2). The lower rod is fixed to the cuvette base and the top portion was attached to the isometric transducer for measuring the voltage variation of the fragment. The transducer was connected to a device which transforms the voltage variation in digital record. The fragments were subjected to a basal voltage of 1 g and were calibrated, so that the subsequent contractions could be expressed as a percentage of this 1 g voltage. The solutions were introduced inside the cuvettes with the aid of an automatic pipette. The end of the tip was always placed at the same height and position, without touching the muscle. The tracheal rings were initially contracted with 2.5 μM of carbachol. When the contractions reached the plateau, each segment was washed until the total relaxation of the smooth muscle. […] All results were expressed as percentage of the contraction produced by 2.5 μM of carbachol (Coelho et al., 2008).

[6] = tested on: rat tracheas pre-contracted with carbachol; experiment: Relaxation of rat trachea pre-contracted with carbachol; details: for EC50: Rattus norvegicus; for EC50 / maximum relaxation effect: trachea pre-contracted with carbachol 2.5 μM, mean±SEM; for times more potent as relaxation inducers than mexiletine: pre-contracted trachea
Method: To assess the potential relaxing effect of the respiratory smooth muscle, rat tracheas were obtained and maintained in an isolated organ bath, as previously described (Coelho et al., 2008). The tracheal segments were then pre-contracted with carbachol at the concentration of 2.5 μM and subjected to increasing concentrations of the tested compounds. All results were expressed as percentage of the contraction produced by carbachol (Coelho et al., 2008).

tracheal rings = experiment: Anaphylactic (ovalbumin-induced) contraction of tracheal rings from sensitized rats; parameters: species or system Wistar rats; details: for blocking of anaphylactic contraction: compound 30 μM
Method: In this study, Wistar rats of both sexes were used, weighing between 200 and 250 g, coming from the Laboratory Animal Breeding Center of Fundacdo Oswaldo Cruz. As described previously (da Costa et al., 2007), the animals were sensitized by injection into the dorsal subcutaneous tissue with mixture containing 50 μg of ovalbumin and 5 mg of aluminum hydroxide on days 0 and 7. On the 14th day after the first sensitization, the animals were sacrificed for the removal of the trachea. After a stabilization period of 30 minutes, the tracheal rings were contracted initially with carbachol (2.5 μM) for testing the feasibility and reproducibility of the responses of the preparation.
The tracheal rings were exposed to increasing concentrations of JME-173 (3-30 μM), or carrier (0.9% NaCl) for 30 minutes before the triggering of the contractile response triggered by ovalbumin (100 μg/ml). Salmeterol (30 μM) was used as reference treatment. The responses were expressed as mean±Standard Error of the Mean of at least 5 tracheal segments. All results were expressed as percentage of the contraction produced by 2.5 μM of carbachol.

A/J mice [7] = experiment: Ovalbumin asthma model: hyperreactivity, mucus production, peribronchial fibrosis (nebulization); format: in vivo
Source text: Male A/J mice (18-20 g), coming from the Laboratory Animal Breeding Center of Oswaldo Cruz Foundation, were used in the experiments. The sensitization procedures, antigen challenge and treatment used in this study followed the experimental protocol shown in FIG. 6. Histological techniques were used for the quantification of mucus and peribronchial fibrosis, following previously reported and validated experimental protocols (Serra et al., 2012).

[8] = 30 and 100 mg/kg orally 1 hour before LPS

| SMILES | blocking of methacholine-induced increase of Penh (cholinergic bronchospasm) (A/J mice [2]; 3 hours after treatment) | IC50 [3] | Emax [3] | IL-5 generation in lung tissue (A/J mice [5]; nebulization 2%) | IL-13 generation in lung tissue (A/J mice [5]; nebulization 2%) | eotaxin-2 generation in lung tissue (A/J mice [5]; nebulization 2%) | airway hyperreactivity (lung resistance and elastance after methacholine) (A/J mice [5]) | IC50 (rat tracheal rings; Rattus norvegicus) | Emax (rat tracheal rings; Rattus norvegicus) | inhibition at 100 µM (rat tracheal rings; Rattus norvegicus) | EC50 [6] | times more potent as relaxation inducers than mexiletine [6] | maximum relaxation effect [6] | blocking of anaphylactic contraction (tracheal rings) | other results |
| --- | --- | --- | --- | --- | --- | --- | --- | --- | --- | --- | --- | --- | --- | --- | --- |
| CC(N)COc1ccc(-c2ccccc2)cc1.Cl (centres unmarked) [JME-209] | active only at the highest dose | 28.6 µM | 100% | – | – | – | – | – | – | – | – | – | – | – | increase in the number of mononuclear cells in bronchoalveolar lavage (A/J mice [1]; [8]): without significantly altering; levels of eosinophils in bronchoalveolar lavage (A/J mice [1]; [8]): reducing; levels of neutrophils in bronchoalveolar lavage (A/J mice [1]; [8]): reducing; leukocyte infiltration in bronchoalveolar space (A/J mice [1]; 30 and 100 mg/kg orally 1 hour before LPS, 18 hours after challenge): inhibited; airway hyperreactivity (lung resistance and elastance) (A/J mice [1]; oral treatment 1 hour before LPS, 18 hours after LPS): inhibited; action time (A/J mice [2]; 100 mg/kg orally): at least 3 hours; blocking of methacholine-induced increase of Penh (cholinergic bronchospasm) (A/J mice [2]; 1 hour after treatment): slight blocking; eosinophils in bronchoalveolar effluent (A/J mice [4]; dexamethasone 1 mg/kg, orally): blocked; mononuclear cells in bronchoalveolar effluent (A/J mice [4]; dexamethasone 1 mg/kg, orally): blocked; neutrophils in bronchoalveolar effluent (A/J mice [4]; dexamethasone 1 mg/kg, orally): blocked; accumulation of total leukocytes in bronchoalveolar space (A/J mice [4]; dexamethasone 3 mg/kg, orally 1 hr before smoke): significantly inhibited |
| Cc1cc(I)ccc1OCC(C)N.Cl (centres unmarked) [JME-207] | significantly inhibited | 2.3 µM | 94% | equally sensitive | equally sensitive | only the latter inhibited | abolished | 40.9 µM | 92.9 ± 4.3% | ~93% | 1000 µM | 146 times | 111% | – | increased production of eotaxin-1 (A/J mice [5]; nebulization 2%): failed to modify |
| OCc1cc(C(O)CNCCCCCCOCCCCc2ccccc2)ccc1O (centres unmarked) [salmeterol, reference compound] | – | – | – | – | – | – | – | – | – | – | – | – | – | 52% | – |
| Cc1cc(OCC(C)N)cc(C)c1Br.Cl (centres unmarked) [JME-173] | – | – | 97% | blocking | blocking | blocking | abolished | 44.4 µM | 97.9 ± 4.7% | ~98% | 3100 µM | 47 times | 118% | completely inhibited | EC50 (tracheal rings; Rattus norvegicus, ovalbumin 100 μg/ml, 30 minutes pretreatment, read-out: EC50 inhibition of anaphylactic contraction response): 8.3 µM; airway hyperreactivity (A/J mice [7]; nebulization 0.5%, 1% or 2% for 30 minutes): able to block; inhibition of mucus production in airways (A/J mice [7]; nebulization 0.5%, PAS staining, quantitative analysis): about 70%; peribronchial fibrotic response (A/J mice [7]; nebulization, Gömöri trichrome, morphometry): clearly abolished; increased levels of anti-inflammatory cytokine IL-10 (A/J mice [5]; nebulization 2%): without change; IC50 (rat tracheal rings): 44.3 µM |
